# Source: ChEMBL document CHEMBL4364276, “Discovery of 4-phenyl-2H-benzo[b][1,4]oxazin-3(4H)-one derivatives as potent and orally active PI3K/mTOR dual inhibitors” (Eur J Med Chem, 2019)
# Legend:
# [1] = target: Serine/threonine-protein kinase STK11 (Homo sapiens) (UniProt Q15831); experiment: Inhibition of human LKB1 at 100 nM using LSNLYHQGKFLQTFCGSPLYRRR as substrate by [gamma-33P]-ATP assay
# [2] = target: Focal adhesion kinase 1 (Homo sapiens) (UniProt Q05397); experiment: Inhibition of human FAK at 100 nM using poly[Glu:Tyr] (4:1) as substrate by [gamma-33P]-ATP assay
# [3] = Volume of distribution at steady state in Sprague-Dawley rat at 1 mg/kg, iv measured upto 24 hrs by LC-MS/MS analysis; assay type: ADME, organism-based; conditions: in vivo, read-out: Vdss
# [4] = target: Serine/threonine-protein kinase Nek1 (Homo sapiens) (UniProt Q96PY6); experiment: Inhibition of human NEK1 at 100 nM using MBP as substrate by [gamma-33P]-ATP assay
# [5] = target: Tyrosine-protein kinase Blk (Homo sapiens) (UniProt P51451); experiment: Inhibition of human BLK at 100 nM using poly[Glu:Tyr](4:1) as substrate by [gamma-33P]-ATP assay
# [6] = target: cAMP-dependent protein kinase catalytic subunit alpha (Homo sapiens) (UniProt P17612); experiment: Inhibition of human PKA at 100 nM using LCGRTGRRNSI as substrate by [gamma-33P]-ATP assay
# [7] = target: Casein kinase I isoform delta (Homo sapiens) (UniProt P48730); experiment: Inhibition of human CK1D at 100 nM using KRRRAL[pS]VASLPGL as substrate by [gamma-33P]-ATP assay
# Casein kinase I isoform delta (Homo sapiens), sequence (P48730 whole entry, looked up, canonical isoform): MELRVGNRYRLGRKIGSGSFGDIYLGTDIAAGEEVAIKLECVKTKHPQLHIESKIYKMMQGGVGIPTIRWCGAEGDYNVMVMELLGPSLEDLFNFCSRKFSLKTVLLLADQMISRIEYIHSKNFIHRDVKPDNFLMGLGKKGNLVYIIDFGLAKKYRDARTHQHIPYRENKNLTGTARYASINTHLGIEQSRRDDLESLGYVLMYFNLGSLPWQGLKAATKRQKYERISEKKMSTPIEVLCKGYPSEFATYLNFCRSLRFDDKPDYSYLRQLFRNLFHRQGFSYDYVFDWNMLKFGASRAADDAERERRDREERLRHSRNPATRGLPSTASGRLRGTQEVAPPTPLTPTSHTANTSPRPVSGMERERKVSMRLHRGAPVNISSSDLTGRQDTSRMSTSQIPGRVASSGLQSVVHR
# [8] = target: Myosin light chain kinase 2, skeletal/cardiac muscle (Homo sapiens) (UniProt Q9H1R3); experiment: Inhibition of human MLCK2 at 100 nM using KKLNRTLSFAEPG as substrate by [gamma-33P]-ATP assay
# Myosin light chain kinase 2, skeletal/cardiac muscle (Homo sapiens), sequence (Q9H1R3 whole entry): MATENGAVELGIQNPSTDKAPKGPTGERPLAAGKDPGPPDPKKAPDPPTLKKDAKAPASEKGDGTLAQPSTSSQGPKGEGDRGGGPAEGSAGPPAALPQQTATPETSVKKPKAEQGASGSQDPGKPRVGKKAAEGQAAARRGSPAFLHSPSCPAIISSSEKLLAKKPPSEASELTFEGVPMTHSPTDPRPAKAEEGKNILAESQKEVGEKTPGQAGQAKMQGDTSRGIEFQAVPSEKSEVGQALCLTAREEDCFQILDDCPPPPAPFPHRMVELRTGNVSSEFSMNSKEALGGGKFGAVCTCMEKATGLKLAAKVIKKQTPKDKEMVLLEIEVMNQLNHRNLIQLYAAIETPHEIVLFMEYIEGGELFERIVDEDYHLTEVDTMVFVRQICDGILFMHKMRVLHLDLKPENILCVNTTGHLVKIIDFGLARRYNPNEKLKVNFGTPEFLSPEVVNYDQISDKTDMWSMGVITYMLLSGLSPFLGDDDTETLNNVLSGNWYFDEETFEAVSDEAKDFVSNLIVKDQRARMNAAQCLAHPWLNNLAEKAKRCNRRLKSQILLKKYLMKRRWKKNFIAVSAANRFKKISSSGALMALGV
# [9] = target: Inhibitor of nuclear factor kappa-B kinase subunit beta (Homo sapiens) (UniProt O14920); experiment: Inhibition of human IKKbeta at 100 nM using KKKKERLLDDRHDSGLDSMKDEE as substrate by [gamma-33P]-ATP assay
# [10] = target: Dual serine/threonine and tyrosine protein kinase (Homo sapiens) (UniProt Q6XUX3); experiment: Inhibition of human RIPK5 at 100 nM using MBP as substrate by [gamma-33P]-ATP assay
# Dual serine/threonine and tyrosine protein kinase (Homo sapiens), sequence (Q6XUX3 whole entry): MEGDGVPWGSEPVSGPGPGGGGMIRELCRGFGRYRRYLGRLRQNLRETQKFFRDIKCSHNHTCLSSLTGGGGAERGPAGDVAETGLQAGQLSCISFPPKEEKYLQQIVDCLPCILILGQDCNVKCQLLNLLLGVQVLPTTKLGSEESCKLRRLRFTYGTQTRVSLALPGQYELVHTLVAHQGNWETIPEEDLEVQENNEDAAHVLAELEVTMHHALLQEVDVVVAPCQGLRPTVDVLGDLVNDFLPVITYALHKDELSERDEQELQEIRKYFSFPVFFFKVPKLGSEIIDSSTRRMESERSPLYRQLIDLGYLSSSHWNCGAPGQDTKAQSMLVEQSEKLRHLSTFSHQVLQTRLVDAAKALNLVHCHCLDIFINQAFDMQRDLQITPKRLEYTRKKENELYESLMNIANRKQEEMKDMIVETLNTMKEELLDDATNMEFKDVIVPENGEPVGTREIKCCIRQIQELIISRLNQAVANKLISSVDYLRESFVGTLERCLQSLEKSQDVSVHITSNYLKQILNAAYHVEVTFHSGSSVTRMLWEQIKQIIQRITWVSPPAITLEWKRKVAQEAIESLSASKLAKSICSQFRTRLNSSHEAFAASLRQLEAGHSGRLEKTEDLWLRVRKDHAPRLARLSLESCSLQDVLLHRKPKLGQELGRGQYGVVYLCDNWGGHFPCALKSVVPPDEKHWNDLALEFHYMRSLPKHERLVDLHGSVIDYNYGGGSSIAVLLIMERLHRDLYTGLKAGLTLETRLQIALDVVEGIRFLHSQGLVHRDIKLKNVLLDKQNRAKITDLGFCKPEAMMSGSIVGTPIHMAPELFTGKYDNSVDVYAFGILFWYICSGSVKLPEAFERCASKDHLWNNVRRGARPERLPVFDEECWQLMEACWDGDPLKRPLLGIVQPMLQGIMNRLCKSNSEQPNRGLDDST
# [11] = target: CDK1/Cyclin E (Homo sapiens) (UniProt P06493+P24864); experiment: Inhibition of human CDK1/cyclinE at 100 nM using RB protein as substrate by [gamma-33P]-ATP assay; assay type: protein-complex assay
# HeLa = experiment: Antitumor activity against human HeLa cells xenografted in BALB/c nude mouse assessed as tumor growth inhibition at 20 mg/kg, ig administered for 30 days measured every 3 days during compound dosing relative to control; assay type: functional; conditions: po, read-out: TGI
# [12] = target: Activin receptor type-1B (Homo sapiens) (UniProt P36896); experiment: Inhibition of human ALK4 at 100 nM using casein as substrate by [gamma-33P]-ATP assay
# PI3K p110 beta/p85 alpha = PI3K p110 beta/p85 alpha (Homo sapiens, UniProt P42338); experiment: Inhibition of recombinant human full length N-terminal GST-tagged PI3Kbeta (1 to 1070 residues)/PIK3R1 (1 to 724 residues) expressed in baculovirus expression system using PIP2 as substrate incubated for 2 hrs by ADP-Glo assay
# [13] = target: Ephrin type-A receptor 1 (Homo sapiens) (UniProt P21709); experiment: Inhibition of human EPHA1 at 100 nM using poly[Glu:Tyr] (4:1) as substrate by [gamma-33P]-ATP assay
# Homo sapiens = species on record: Homo sapiens; experiment: Inhibition of human AMPK (A2/B2/G3) at 100 nM using HMRSAMSGLHLVKRR as substrate by [gamma-33P]-ATP assay
# [14] = target: Casein kinase II subunit alpha (Homo sapiens) (UniProt P68400); experiment: Inhibition of human CK2A at 100 nM using RRRDDDSDDD as substrate by [gamma-33P]-ATP assay
# [15] = target: Serine/threonine-protein kinase 24 (Homo sapiens) (UniProt Q9Y6E0); experiment: Inhibition of human MST3 at 100 nM using MBP as substrate by [gamma-33P]-ATP assay
# Serine/threonine-protein kinase 24 (Homo sapiens), sequence (Q9Y6E0 whole entry, looked up): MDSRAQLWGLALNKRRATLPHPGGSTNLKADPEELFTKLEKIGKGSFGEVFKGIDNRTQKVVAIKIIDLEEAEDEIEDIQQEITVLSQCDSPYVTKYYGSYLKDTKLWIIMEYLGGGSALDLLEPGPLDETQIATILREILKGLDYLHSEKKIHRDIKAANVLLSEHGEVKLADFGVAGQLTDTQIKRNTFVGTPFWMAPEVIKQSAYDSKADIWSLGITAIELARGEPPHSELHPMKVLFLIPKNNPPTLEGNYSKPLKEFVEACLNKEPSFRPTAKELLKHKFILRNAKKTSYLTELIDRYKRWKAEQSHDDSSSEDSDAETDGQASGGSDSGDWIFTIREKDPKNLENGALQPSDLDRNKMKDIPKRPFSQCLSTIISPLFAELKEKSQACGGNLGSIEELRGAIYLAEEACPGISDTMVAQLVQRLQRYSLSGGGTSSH
# [16] = target: Cyclin-dependent kinase 2/cyclin E1 (Homo sapiens) (UniProt P24864+P24941); experiment: Inhibition of human CDK2/cyclin-E at 100 nM using histone H1 as substrate by [gamma-33P]-ATP assay; assay type: protein-complex assay
# [17] = target: Tyrosine-protein kinase SYK (Homo sapiens) (UniProt P43405); experiment: Inhibition of human SYK at 100 nM using poly[Glu:Tyr] (4:1) as substrate by [gamma-33P]-ATP assay
# [18] = target: Casein kinase I isoform epsilon (Homo sapiens) (UniProt P49674); experiment: Inhibition of human CK1E at 100 nM using KRRRAL[pS]VASLPGL as substrate by [gamma-33P]-ATP assay
# Casein kinase I isoform epsilon (Homo sapiens), sequence (P49674 whole entry, looked up, canonical isoform): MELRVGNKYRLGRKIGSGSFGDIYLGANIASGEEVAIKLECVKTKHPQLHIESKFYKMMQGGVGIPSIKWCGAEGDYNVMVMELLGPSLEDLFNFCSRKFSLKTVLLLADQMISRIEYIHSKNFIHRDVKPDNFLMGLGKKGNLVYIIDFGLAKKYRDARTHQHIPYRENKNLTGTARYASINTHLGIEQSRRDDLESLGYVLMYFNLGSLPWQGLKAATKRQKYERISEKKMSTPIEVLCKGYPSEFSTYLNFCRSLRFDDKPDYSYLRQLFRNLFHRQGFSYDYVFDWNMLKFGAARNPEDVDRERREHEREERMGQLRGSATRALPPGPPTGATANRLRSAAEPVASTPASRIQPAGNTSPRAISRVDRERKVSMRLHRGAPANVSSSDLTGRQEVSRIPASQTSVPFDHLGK
# [19] = target: Protein kinase C theta type (Homo sapiens) (UniProt Q04759); experiment: Inhibition of human PKCtheta at 100 nM using Histone H1 as substrate by [gamma-33P]-ATP assay
# [20] = target: Serine/threonine-protein kinase haspin (Homo sapiens) (UniProt Q8TF76); experiment: Inhibition of human haspin at 100 nM using Histone H3 as substrate by [gamma-33P]-ATP assay
# Serine/threonine-protein kinase haspin (Homo sapiens), sequence (Q8TF76 whole entry): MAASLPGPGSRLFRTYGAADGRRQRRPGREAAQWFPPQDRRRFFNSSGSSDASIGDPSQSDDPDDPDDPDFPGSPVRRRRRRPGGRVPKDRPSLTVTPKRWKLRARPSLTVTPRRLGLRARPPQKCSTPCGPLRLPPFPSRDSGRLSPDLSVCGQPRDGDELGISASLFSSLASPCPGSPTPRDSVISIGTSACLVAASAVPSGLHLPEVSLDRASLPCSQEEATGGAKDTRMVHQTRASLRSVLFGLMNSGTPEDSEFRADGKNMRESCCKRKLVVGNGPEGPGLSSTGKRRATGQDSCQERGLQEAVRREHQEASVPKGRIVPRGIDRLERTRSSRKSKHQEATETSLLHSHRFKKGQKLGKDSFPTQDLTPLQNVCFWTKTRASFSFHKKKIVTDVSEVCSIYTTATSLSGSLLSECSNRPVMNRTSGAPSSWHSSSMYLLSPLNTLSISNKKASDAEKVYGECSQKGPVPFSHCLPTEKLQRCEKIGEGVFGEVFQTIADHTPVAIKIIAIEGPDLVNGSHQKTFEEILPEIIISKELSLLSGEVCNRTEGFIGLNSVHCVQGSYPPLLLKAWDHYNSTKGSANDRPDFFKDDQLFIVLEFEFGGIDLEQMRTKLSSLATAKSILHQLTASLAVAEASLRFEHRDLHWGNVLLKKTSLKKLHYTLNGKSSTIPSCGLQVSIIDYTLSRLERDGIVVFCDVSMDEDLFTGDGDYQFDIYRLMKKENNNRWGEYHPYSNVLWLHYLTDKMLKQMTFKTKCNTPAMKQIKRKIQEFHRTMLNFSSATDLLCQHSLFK
# [21] = target: Lymphokine-activated killer T-cell-originated protein kinase (Homo sapiens) (UniProt Q96KB5); experiment: Inhibition of human PBK at 100 nM using MBP as substrate by [gamma-33P]-ATP assay
# Lymphokine-activated killer T-cell-originated protein kinase (Homo sapiens), sequence (Q96KB5 whole entry): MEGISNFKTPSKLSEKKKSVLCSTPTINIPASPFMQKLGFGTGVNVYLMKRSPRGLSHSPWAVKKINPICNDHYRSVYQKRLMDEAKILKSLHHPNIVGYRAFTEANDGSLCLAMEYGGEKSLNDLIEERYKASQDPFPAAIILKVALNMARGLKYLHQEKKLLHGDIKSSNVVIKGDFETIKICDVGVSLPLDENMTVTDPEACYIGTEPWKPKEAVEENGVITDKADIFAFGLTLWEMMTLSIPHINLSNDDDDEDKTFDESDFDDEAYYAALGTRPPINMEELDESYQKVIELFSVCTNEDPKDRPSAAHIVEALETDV
# [22] = target: Serine/threonine-protein kinase tousled-like 2 (Homo sapiens) (UniProt Q86UE8); experiment: Inhibition of human TLK2 at 100 nM using casein as substrate by [gamma-33P]-ATP assay
# HCT-116 = experiment: Antiproliferative activity against human HCT116 cells assessed as reduction in cell viability incubated for 72 hrs by MTT assay; assay type: functional, cell-based; conditions: HCT-116, 72 h
# [23] = target: Serine/threonine-protein kinase PAK 4 (Homo sapiens) (UniProt O96013); experiment: Inhibition of human PAK4 at 100 nM using RRRLSFAEPG as substrate by [gamma-33P]-ATP assay
# [24] = target: Protein kinase C iota type (Homo sapiens) (UniProt P41743); experiment: Inhibition of human PKCiota at 100 nM using ERMRPRKRQGSVRRRV as substrate by [gamma-33P]-ATP assay
# [25] = target: Dual specificity mitogen-activated protein kinase kinase 4 (Homo sapiens) (UniProt P45985); experiment: Inhibition of human MKK4 at 100 nM using JNK1 as substrate by [gamma-33P]-ATP assay
# Dual specificity mitogen-activated protein kinase kinase 4 (Homo sapiens), sequence (P45985 whole entry): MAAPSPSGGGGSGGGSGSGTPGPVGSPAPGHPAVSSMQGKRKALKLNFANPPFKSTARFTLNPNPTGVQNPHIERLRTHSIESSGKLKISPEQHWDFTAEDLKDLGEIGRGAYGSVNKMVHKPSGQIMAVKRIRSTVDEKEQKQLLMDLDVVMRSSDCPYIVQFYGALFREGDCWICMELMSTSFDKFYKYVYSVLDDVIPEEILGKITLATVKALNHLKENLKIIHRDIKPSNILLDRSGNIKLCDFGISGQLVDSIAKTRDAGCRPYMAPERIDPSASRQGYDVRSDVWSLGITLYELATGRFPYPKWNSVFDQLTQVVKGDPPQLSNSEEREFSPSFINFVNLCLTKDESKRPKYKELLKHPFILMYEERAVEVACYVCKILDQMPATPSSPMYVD
# [26] = target: Serine/threonine-protein kinase WNK3 (Homo sapiens) (UniProt Q9BYP7); experiment: Inhibition of human WNK3 at 100 nM using MBP as substrate by [gamma-33P]-ATP assay
# [27] = target: Dual specificity mitogen-activated protein kinase kinase 2 (Homo sapiens) (UniProt P36507); experiment: Inhibition of human MEK2 at 100 nM using ERK2 as substrate by [gamma-33P]-ATP assay
# Dual specificity mitogen-activated protein kinase kinase 2 (Homo sapiens), sequence (P36507 whole entry): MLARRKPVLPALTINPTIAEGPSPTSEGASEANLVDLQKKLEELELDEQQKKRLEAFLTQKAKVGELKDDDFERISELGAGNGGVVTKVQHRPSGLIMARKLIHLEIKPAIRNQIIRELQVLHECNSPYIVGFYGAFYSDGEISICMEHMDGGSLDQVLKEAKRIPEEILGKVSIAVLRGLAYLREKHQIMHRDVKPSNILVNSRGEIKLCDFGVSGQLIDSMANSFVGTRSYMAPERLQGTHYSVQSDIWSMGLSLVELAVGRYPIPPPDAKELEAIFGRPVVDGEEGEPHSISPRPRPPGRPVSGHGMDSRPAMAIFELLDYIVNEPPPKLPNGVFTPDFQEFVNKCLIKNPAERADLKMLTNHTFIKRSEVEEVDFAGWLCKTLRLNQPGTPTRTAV
smiles,measurement,setting,value
COc1ccc(N2C(=O)COc3ccc(-c4cnc(OC)c(NS(=O)(=O)c5ccc(F)cc5)c4)cc32)cc1,inhibition,[1],-3.12%
same,inhibition,[2],15.9%
same,Vd,[3],1.2 L/kg
same,inhibition,[4],19%
same,inhibition,[5],27.5%
same,inhibition,[6],15.1%
same,inhibition,[7],2.83%
same,inhibition,[8],0.61%
same,inhibition,[9],14.5%
same,inhibition,[10],9.57%
same,inhibition,[11],7.09%
same,inhibition in vivo at 20 mg/kg,HeLa,66.6%
same,inhibition,[12],-0.05%
same,IC50,PI3K p110 beta/p85 alpha,0.0945 µM
same,inhibition,[13],4.93%
same,inhibition,Homo sapiens,5.47%
same,inhibition,[14],12.7%
same,inhibition,[15],10.6%
same,inhibition,[16],11.2%
same,inhibition,[17],3.43%
same,inhibition,[18],3.34%
same,inhibition,[19],0.73%
same,inhibition,[20],12.1%
same,inhibition,[21],0.99%
same,inhibition,[22],-7.96%
same,IC50,HCT-116,13.4 µM
same,inhibition,[23],7.74%
same,inhibition,[24],-2.31%
same,inhibition,[25],-4.2%
same,inhibition,[26],-0.32%
same,inhibition,[27],1.12%
